Values of other authors as cited in patent publication US10472401B2, “Peptides and combination of peptides for use in immunotherapy against ovarian cancer and other cancers” (immatics biotechnologies GmbH, priority 2015, dated 2019).

Columns and labels:
PLA2G6 = biological target: T1, PLA2G6 (Homo sapiens, UniProt O60733); conditions: cited from earlier work
T1 construct: host or cells: ovarian cancer cells
T1 sequence (O60733 1-806): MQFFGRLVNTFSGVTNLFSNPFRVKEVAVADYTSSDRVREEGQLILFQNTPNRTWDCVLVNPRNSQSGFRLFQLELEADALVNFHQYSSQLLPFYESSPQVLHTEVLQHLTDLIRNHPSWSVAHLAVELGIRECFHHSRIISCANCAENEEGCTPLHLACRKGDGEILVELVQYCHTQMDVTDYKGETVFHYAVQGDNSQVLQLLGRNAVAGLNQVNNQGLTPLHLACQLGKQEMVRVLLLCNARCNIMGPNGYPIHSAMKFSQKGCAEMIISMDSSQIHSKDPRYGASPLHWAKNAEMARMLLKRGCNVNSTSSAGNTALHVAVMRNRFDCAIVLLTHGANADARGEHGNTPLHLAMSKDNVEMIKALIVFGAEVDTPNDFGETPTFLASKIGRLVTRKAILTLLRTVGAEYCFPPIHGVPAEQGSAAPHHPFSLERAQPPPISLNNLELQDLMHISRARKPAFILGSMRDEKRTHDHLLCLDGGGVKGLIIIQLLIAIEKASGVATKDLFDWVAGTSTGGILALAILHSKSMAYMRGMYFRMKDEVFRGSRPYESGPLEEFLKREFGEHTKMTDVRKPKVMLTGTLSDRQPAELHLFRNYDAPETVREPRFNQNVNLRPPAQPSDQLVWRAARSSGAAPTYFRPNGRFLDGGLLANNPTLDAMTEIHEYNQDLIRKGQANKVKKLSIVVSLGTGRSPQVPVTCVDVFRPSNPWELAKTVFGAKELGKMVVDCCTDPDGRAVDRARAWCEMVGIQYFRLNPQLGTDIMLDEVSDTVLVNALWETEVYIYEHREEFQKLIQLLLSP

human tumor cell lines = conditions: cited from earlier work
UBE2V1 = conditions: cited from earlier work
ATR = ATR (Homo sapiens, UniProt Q13535); conditions: pancreatic cancer cells in vitro, pancreatic tumor xenografts in vivo; cited from earlier work
ATR, sequence (Q13535 whole entry): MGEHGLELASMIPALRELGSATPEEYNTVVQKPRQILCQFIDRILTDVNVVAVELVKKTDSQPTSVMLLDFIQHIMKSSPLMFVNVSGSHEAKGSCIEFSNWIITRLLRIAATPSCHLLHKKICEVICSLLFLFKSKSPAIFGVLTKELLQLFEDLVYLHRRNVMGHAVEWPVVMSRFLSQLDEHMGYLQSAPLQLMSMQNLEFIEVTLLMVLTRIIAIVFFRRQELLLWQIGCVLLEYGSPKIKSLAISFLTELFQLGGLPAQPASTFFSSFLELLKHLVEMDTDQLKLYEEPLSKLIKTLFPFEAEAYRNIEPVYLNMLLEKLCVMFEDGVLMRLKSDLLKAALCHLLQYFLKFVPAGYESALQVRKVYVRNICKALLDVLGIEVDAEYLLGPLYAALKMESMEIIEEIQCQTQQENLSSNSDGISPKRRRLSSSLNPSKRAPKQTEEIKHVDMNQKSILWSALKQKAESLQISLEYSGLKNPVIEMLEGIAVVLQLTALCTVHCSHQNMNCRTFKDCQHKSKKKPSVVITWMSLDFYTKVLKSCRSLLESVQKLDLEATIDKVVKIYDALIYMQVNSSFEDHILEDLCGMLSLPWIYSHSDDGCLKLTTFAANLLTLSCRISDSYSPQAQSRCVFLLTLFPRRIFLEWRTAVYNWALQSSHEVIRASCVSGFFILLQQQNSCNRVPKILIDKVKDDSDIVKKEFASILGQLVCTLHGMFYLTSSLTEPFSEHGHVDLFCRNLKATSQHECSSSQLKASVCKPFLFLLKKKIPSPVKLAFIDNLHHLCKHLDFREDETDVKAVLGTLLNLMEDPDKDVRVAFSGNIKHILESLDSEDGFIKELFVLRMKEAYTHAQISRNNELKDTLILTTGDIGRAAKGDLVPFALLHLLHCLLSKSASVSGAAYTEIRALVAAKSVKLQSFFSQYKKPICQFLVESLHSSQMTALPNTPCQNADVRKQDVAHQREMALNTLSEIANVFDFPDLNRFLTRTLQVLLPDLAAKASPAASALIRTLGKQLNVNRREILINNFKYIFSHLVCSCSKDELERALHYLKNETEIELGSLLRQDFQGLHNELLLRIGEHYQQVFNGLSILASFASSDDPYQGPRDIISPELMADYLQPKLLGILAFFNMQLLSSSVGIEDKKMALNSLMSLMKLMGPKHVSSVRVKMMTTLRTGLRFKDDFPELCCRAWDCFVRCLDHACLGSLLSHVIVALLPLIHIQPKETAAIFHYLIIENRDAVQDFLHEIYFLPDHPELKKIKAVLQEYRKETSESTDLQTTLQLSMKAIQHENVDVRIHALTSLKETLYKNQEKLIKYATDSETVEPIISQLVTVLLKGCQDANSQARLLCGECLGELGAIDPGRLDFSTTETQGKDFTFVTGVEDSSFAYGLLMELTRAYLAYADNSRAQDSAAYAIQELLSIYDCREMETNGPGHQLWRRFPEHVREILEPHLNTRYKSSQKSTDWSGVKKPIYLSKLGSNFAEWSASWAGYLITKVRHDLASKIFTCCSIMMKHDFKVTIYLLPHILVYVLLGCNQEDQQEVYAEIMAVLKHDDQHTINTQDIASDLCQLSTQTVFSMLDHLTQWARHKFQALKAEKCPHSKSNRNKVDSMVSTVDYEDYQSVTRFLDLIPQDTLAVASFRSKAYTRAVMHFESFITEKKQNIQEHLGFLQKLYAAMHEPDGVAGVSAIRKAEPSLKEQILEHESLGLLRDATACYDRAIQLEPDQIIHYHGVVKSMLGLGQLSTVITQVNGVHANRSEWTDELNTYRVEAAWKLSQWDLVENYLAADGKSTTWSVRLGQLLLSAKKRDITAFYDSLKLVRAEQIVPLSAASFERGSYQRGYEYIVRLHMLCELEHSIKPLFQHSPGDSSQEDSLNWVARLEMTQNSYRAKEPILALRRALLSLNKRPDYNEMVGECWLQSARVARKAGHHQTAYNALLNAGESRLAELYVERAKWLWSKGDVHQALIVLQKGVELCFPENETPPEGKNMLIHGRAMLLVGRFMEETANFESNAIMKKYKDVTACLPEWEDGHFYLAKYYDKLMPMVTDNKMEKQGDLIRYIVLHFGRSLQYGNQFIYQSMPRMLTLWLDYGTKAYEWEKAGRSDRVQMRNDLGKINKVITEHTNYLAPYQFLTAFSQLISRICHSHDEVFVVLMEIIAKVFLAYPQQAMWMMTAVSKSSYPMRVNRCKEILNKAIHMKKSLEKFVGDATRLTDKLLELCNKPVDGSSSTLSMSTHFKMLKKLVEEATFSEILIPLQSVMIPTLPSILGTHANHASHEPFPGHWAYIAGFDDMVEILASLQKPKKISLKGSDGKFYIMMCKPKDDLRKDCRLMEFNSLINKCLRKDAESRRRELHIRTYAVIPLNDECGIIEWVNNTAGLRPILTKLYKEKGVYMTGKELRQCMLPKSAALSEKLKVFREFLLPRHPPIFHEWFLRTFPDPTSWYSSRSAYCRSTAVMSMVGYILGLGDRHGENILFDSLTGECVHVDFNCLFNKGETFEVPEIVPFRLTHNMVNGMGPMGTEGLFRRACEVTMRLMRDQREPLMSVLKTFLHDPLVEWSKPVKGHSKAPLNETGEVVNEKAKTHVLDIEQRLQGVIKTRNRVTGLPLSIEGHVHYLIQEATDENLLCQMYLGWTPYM
ATR, sequence (Q8WXE1 whole entry partner): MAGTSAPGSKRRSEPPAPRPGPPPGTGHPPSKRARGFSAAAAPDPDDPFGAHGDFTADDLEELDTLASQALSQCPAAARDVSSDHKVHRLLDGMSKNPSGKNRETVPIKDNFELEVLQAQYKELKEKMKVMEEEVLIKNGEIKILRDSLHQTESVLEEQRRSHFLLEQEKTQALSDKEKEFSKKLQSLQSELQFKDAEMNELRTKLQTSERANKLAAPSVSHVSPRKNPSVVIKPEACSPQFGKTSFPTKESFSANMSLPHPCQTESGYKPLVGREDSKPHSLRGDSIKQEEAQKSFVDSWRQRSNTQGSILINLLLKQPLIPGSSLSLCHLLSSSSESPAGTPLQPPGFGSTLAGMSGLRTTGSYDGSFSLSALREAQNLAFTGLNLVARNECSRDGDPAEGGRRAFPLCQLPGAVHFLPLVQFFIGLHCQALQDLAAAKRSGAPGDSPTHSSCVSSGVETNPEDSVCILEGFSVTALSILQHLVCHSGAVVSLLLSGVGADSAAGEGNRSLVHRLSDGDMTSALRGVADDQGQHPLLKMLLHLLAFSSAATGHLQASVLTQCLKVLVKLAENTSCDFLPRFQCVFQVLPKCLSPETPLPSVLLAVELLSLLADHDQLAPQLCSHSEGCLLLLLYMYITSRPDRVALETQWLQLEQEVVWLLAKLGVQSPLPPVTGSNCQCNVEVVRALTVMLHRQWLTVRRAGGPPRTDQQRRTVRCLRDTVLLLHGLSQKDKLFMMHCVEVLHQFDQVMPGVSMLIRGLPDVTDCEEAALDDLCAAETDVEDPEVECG

IMPDH2 = biological target: T2, IMPDH2 (Homo sapiens, UniProt P12268); conditions: patients with acute myeloid leukemia and chronic myeloid leukemia in blast crisis; cited from earlier work
T2 construct: host or cells: patients with AML and CML in blast crisis
T2 sequence (P12268 2-514 limits assumed): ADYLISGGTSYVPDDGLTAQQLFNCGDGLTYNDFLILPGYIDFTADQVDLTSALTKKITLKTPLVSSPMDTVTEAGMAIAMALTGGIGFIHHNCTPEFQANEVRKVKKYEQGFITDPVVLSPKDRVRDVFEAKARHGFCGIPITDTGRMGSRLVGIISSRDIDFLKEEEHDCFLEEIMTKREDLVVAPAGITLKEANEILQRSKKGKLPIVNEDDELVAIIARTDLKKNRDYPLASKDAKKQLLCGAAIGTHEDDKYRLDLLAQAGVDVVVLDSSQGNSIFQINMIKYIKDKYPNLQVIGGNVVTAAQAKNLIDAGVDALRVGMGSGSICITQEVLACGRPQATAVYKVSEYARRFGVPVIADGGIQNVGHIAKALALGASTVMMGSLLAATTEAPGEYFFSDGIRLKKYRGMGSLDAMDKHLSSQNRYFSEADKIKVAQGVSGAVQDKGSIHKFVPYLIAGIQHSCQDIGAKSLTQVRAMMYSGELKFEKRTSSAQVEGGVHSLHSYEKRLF

lung tumorigenesis = conditions: TLE1 transgenic mice; cited from earlier work
ALDH5A1 = biological target: T3, ALDH5A1 (Homo sapiens, UniProt P51649); conditions: cited from earlier work
T3 construct: host or cells: breast ductal carcinoma models
T3 sequence (P51649 48-535): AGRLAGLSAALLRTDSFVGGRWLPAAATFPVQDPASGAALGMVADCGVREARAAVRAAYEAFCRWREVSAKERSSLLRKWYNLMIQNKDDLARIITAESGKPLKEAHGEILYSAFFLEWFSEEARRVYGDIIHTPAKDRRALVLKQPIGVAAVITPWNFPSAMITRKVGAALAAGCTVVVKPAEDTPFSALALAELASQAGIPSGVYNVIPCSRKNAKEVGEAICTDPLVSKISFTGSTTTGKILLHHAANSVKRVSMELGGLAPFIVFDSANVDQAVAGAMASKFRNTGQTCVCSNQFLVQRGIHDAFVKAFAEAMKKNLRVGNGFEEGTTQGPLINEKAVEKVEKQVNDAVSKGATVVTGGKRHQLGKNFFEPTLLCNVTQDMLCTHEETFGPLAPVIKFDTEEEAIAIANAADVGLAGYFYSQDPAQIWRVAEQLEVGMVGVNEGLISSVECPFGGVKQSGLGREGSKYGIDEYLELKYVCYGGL

ovarian cancer = conditions: clinical studies; cited from earlier work

Compound: O=C1O/C(=C/Br)CCC1c1cccc2ccccc12 (stereo not shown) [Bromoenol lactone]
- apoptosis and cell cycle of ovarian cancer cells (PLA2G6): increase in apoptosis in ovarian cancer cells as well as inducing cell cycle arrest in S- and G2/M-phases

Compound: CN1CC[C@H](c2c(O)cc(O)c3c(=O)cc(-c4ccccc4Cl)oc23)[C@H](O)C1 [Flavopiridol]
- human tumor cell proliferation (human tumor cell lines): inhibition of human tumor cell proliferation

Compound: Cc1ccc(S(=O)(=O)c2ccc([N+](=O)[O-])o2)cc1 [NSC697923]
- proliferation and survival of diffuse large B-cell lymphoma cells (UBE2V1): inhibit proliferation and survival of diffuse large B-cell lymphoma cells

Compound: CNCc1ccc(-c2cc(-c3nc(-c4ccc(S(=O)(=O)C(C)C)cc4)cnc3N)on2)cc1 [VE-822]
- radiosensitization and chemosensitization (ATR): radiosensitize and chemosensitize pancreatic cancer cells in vitro and pancreatic tumor xenografts in vivo

Compound: NC(=O)c1cccc([C@@H]2O[C@H](CO)[C@@H](O)[C@H]2O)c1 [benzamide riboside]
- clinical response (IMPDH2): good clinical response

Compound: NC(=O)c1csc([C@@H]2O[C@H](CO)[C@@H](O)[C@H]2O)n1 [tiazofurin]
- clinical response (IMPDH2): good clinical response

Compound: CC(/C=C/C(=O)NO)=C\[C@@H](C)C(=O)c1ccc(N(C)C)cc1 [trichostatin A]
- lung tumorigenesis (lung tumorigenesis): significantly inhibited lung tumorigenesis

Compound: CCCC(CCC)C(=O)O [valproic acid]
- net proliferation of breast ductal carcinoma models (ALDH5A1): inhibit net proliferation

Compound: MORAb-003: anti-folate receptor alpha antibody
- clinical results in ovarian cancer patients (ovarian cancer): only conferred limited clinical benefit to ovarian cancer patients

Compound: bevacizumab
- clinical results in ovarian cancer patients (ovarian cancer): appears to be advantageous

Compound: catumaxomab
- clinical results in ovarian cancer patients (ovarian cancer): promising results in phase II and III studies

Compound: ipilimumab
- clinical results in ovarian cancer patients (ovarian cancer): significant anti-tumor effects in ovarian cancer patients

Compound: oregovomab
- clinical results in ovarian cancer patients (ovarian cancer): promising results in phase II and III studies
